According to patent US6555565B2, “Apoptosis inhibitor” (Takeda Chemical Industries, Ltd., priority 1997, dated 2003):

System: mouse fibroblast (L929 cells, IFO 50409)
Assay: TNF-α-induced apoptosis (cell death) of L929 cells, crystal violet staining of living cells
Type: cell-based
Conditions: test compound final concentration 1 μM, 72 hours cultivation, relative to dexamethasone (final concentration 1.1 μM) = 100
Method: Apoptosis (cell death) was induced by adding TNF-α to cells. The inhibitory activity of a test compound to this apoptosis was determined by using known dexamethasone having an apoptosis inhibitory activity as the standard.
Namely, 25 μl of a culture medium (PRMI-1640, produced by Nikken Seibutsu Igaku Kenkyusho, Japan) (containing 10 weight % of fetal bovine serum) was added to each well of a 96-well microplate. Then, added was 2 μl of a solution prepared by 20 volume fold dilution of dimethylformamide (in the case of Compound No. 16) or dimethylsulfoxide (in the case of Compound Nos. 2, 4, 6, 8, 13) solution of a test compound (concentration of the test compound: 1 mM) with the above culture medium.
Subsequently, 25 μl of a solution prepared by dissolving TNF-α (Genzyme, USA)(40 ng/ml culture medium) in the above culture medium, and 50 μl of a suspension (2×10^5 cells/ml) prepared by suspending mouse fibroblast (L929 cells, IFO 50409) in the above culture medium were added, and then cells were cultivated for 72 hours at 37° C. in the presence of 5% carbon dioxide in air. The final concentration of the test compound during cultivation was 1 μM.
After cultivation, the culture medium was removed from the wells by aspiration, and 50 μl of a 5% (w/v) crystal violet/70% (v/v) methanol solution was added to each well to pigment the living cells. Then the wells were washed and dried. The apoptosis inhibitory activity of the test compound was obtained by determining the optical density by using an absorptiometer [Microplate Reader Model 450, produced by Bio-Rad] at the wavelength of 570 nm.
While, the apoptosis inhibitory activity of dexamethasone was obtained in the same manner as above except that the above test compound (final concentration: 1 μM) was replaced by dexamethasone (final concentration: 1.1 μM).
Then, the apoptosis inhibitory activity of each test compounds (final concentration: 1 μM) was calculated when the apoptosis inhibitory activity of dexamethasone (final concentration: 1.1 μM) was 100.

`Cc1oc(-c2ccc3ccccc3c2)nc1CCOc1ccc(CCCC2OC(=O)NC2=O)cc1` (stereo not drawn) [Compound No. 2] and `Cc1oc(-c2ccccc2)nc1COc1ccc(CCCC2OC(=O)NC2=O)cc1` (stereo not drawn) [Compound No. 6, 5-[3-[4-(5-methyl-2-phenyl-4-oxazolylmethoxy]phenyl]propyl]-2,4-oxazolidinedione] are the same in “Apoptosis inhibitory activity (%)” value: 70% for the first, 70% for the second.

First: COc1cc(CCCC2OC(=O)NC2=O)ccc1OCc1nc(-c2ccco2)oc1C (stereo not drawn) [Compound No. 4, 5-[3-[4-[2-(2-furyl)-5-methyl-4-oxazoly]methoxy]-3-methoxyphenyllpropyl]-2,4-oxazolidinedione]
Second: COc1cc(CCCC2OC(=O)NC2=O)ccc1OC(C)c1nc(-c2ccccc2)oc1C (stereo not drawn) [Compound No. 16, 5-[3-[3-methoxy-4-[1-(5-methyl-2-phenyl-4-oxazolyl)ethoxy]phenyl]propyl]-2,4-oxazolidinedione]
The “Apoptosis inhibitory activity (%)” value of the first is higher: 74% for the first, 71% for the second.

First: Cn1nc(CCOc2ccc(CC3SC(=O)NC3=O)cc2)nc1-c1ccccc1 (stereo not drawn) [Compound No. 8, 5-[4-[2-(1-methyl-5-phenyl-1,2,4-triazol-3-yl)ethoxy]benzyl]-2,4-thiazolidinedione]
Second: CN(CCOc1ccc(CC2SC(=O)NC2=O)cc1)c1ccccn1 (stereo not drawn) [Compound No. 13, 5-[[4-[2-(methyl-2-pyridylamino)ethoxy]phenyl]methyl]-2,4-thiazolidinedione, reference compound]
The “Apoptosis inhibitory activity (%)” value of the first is lower: 70% for the first, 92% for the second.
